Source: the supplement of paper PMC7695840
“And” between values parts separate entries of the source, which are not always exact repeats. Equal values may be shown once. Where a name gives a salt, the structure may show the parent alone.

Tests used:
[1] = test system: Staphylococcus aureus MW2 delta-mecA (mecA-); assay: IC50 (growth, competition assay); settings: cefoxitin: subinhibitory
In short: (§1)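 Per plate, DsRed (540/590) and GFP (485/520) readings were normalized between the medians of the single-strain controls, after which No Treatment was fixed at 0.5. These readings came from a 1:1 mix of pre-induced fluorescent S. aureus MW2 strains with and without the resistance gene, grown for 20 h at 37 °C and 90% humidity, unshaken, in LB with a daily-set subinhibitory drug dose in 1536-well plates. Per-strain IC50 meant the dose halving the No Treatment signal, or the maximal signal.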

[2] = test system: Staphylococcus aureus MW2 (mecA+); assay: IC50 (growth, competition assay); settings: cefoxitin: subinhibitory
In short: as §1

SMILES	IC50 ([1]; fluorescent label: DsRed)	IC50 ([1]; fluorescent label: GFP)	IC50 ([2]; fluorescent label: DsRed)	IC50 ([2]; fluorescent label: GFP)
CC(C)c1c(C(=O)Nc2ccccc2)c(-c2ccccc2)c(-c2ccc(F)cc2)n1CC[C@@H](O)C[C@@H](O)CC(=O)O [Atorvastatin calcium (Lipitor)]	29 µM and 24.3 µM	30.1 µM and 25.4 µM	91 µM and 75.8 µM	73.2 µM and 62.8 µM
CN(C)c1ccc(C(=C2C=CC(=[N+](C)C)C=C2)c2ccc(N(C)C)cc2)cc1 [GVS]	< 9.85 µM	< 9.85 µM	< 9.85 µM	< 9.85 µM
CC(C)n1cnc2c(NCCc3ccc(O)cc3)nc(-c3csc4ccccc34)nc21 [StemRegenin 1]	15.1 µM	11.2 µM	25.6 µM	29.9 µM
Cc1ccc(C(=O)Nc2ccc(CN3CCN(C)CC3)c(C(F)(F)F)c2)cc1C#Cc1cnc2cccnn12	8.28 µM	4.54 µM	21.8 µM	27.4 µM
NC[C@H]1O[C@H](O[C@H]2[C@H](O)[C@@H](O[C@H]3O[C@H](CO)[C@@H](O)[C@H](N)[C@H]3O)[C@H](N)C[C@@H]2N)[C@H](N)C[C@@H]1O [Tobramycin]	32 µM	33.8 µM	16 µM	27.6 µM
COC(=O)C1=C(C)NC(C)=C(C(=O)OC)C1c1cccc(NC(=O)NCCCN2CCC(c3cccc(OC)c3)CC2)c1	18.2 µM	13.4 µM	45.5 µM	54.8 µM
C[C@@H](O)[C@H]1C(=O)N2C(C(=O)[O-])=C(SC3Cn4cnc[n+]4C3)[C@H](C)[C@H]12 (stereo partly drawn) [Biapenem]	31.4 µM	24.7 µM	104 µM	112 µM
C[C@@H](Oc1cc(-c2cnn(C3CCNCC3)c2)cnc1N)c1c(Cl)ccc(F)c1Cl	20.9 µM	17 µM	101 µM	108 µM
C=C1C(=O)[C@]23[C@H](CC[C@@H]1[C@@H]2O)[C@]12CO[C@@]3(O)[C@H](O)[C@H]1C(C)(C)CC[C@@H]2O [RUBESCENSIN A]	17.9 µM	17.2 µM	36.3 µM	84.5 µM
O=c1[nH]c(=O)n([C@H]2C[C@H](O)[C@@H](CO)O2)cc1F [Floxuridine]	< 0.498 µM	< 0.498 µM	< 0.498 µM	< 0.498 µM
CCCCc1oc2ccc(NS(C)(=O)=O)cc2c1C(=O)c1ccc(OCCCN(CCCC)CCCC)cc1 [Dronedarone HCl (Multaq)]	5.95 µM	3.07 µM	14.3 µM	14.9 µM
Brc1c(Br)c(Br)c2[nH]cnc2c1Br [TBBz]	11.7 µM	11.3 µM	12.4 µM	30.5 µM
N[C@@H](Cc1cc(I)c(Oc2ccc(O)c(I)c2)c(I)c1)C(=O)O [CYTOMEL]	14 µM	< 9.85 µM	60.3 µM	49.1 µM
CO/N=C(\C(=O)N[C@@H]1C(=O)N2C(C(=O)O)=C(CSc3nc(=O)c(O)nn3C)CS[C@H]12)c1csc(N)n1 [ROCEPHIN]	< 9.85 µM	< 9.85 µM	> 150 µM	> 150 µM
CC[C@H]1OC(=O)[C@H](C)[C@@H](O[C@H]2C[C@@](C)(OC)[C@@H](O)[C@H](C)O2)[C@H](C)[C@@H](O[C@@H]2O[C@H](C)C[C@H](N(C)C)[C@H]2O)[C@](C)(O)C[C@@H](C)CN(C)[C@H](C)[C@@H](O)[C@]1(C)O [ZITHROMAX]	< 9.85 µM	< 9.85 µM	< 9.85 µM	15.7 µM
O=C1Nc2ccc(I)cc2/C1=C/c1cc(Br)c(O)c(Br)c1 [GW5074]	< 9.85 µM	< 9.85 µM	< 9.85 µM	< 9.85 µM
O=C(OC[C@H]1O[C@@H](OC(=O)c2cc(O)c(O)c(OC(=O)c3cc(O)c(O)c(O)c3)c2)[C@H](OC(=O)c2cc(O)c(O)c(OC(=O)c3cc(O)c(O)c(O)c3)c2)[C@@H](OC(=O)c2cc(O)c(O)c(OC(=O)c3cc(O)c(O)c(O)c3)c2)[C@@H]1OC(=O)c1cc(O)c(O)c(OC(=O)c2cc(O)c(O)c(O)c2)c1)c1cc(O)c(O)c(OC(=O)c2cc(O)c(O)c(O)c2)c1 [TANNIC ACID]	44 µM	55.3 µM	57 µM	57.2 µM
CC(C)(C)c1ccc(S(=O)(=O)/C=C/C#N)cc1 [Bay 11-7085]	< 9.85 µM	< 9.85 µM	< 9.85 µM	< 9.85 µM
CN[C@@H]1[C@@H](O)[C@@H](O[C@@H]2[C@@H](O)[C@H](O[C@H]3O[C@H]([C@@H](C)O)[C@@H](O)[C@H](O)[C@H]3N)[C@@H](N)C[C@H]2N)OC[C@]1(C)O [GENETICIN]	< 9.85 µM	12.4 µM	< 9.85 µM	12.5 µM
N[C@@H](C(=O)N[C@@H]1C(=O)N2C(C(=O)O)=C(Cl)CS[C@H]12)c1ccccc1 [Cefaclor]	< 9.85 µM	< 9.85 µM	< 9.85 µM	< 9.85 µM
C[C@@H](O[C@H]1OCCN(Cc2nn(P(=O)(O)O)c(=O)[nH]2)[C@H]1c1ccc(F)cc1)c1cc(C(F)(F)F)cc(C(F)(F)F)c1 [Fosaprepitant dimeglumine]	17.2 µM	31.6 µM	53.4 µM	49.3 µM
CCn1cc(C(=O)O)c(=O)c2cc(F)c(N3CCNCC3)nc21 [PENETREX]	< 9.85 µM	< 9.85 µM	< 9.85 µM	< 9.85 µM
O=c1[nH]nc(Sc2ncc([N+](=O)[O-])s2)n1-c1ccc2c(c1)OCCO2 [BI 78D3]	< 9.85 µM	< 9.85 µM	< 9.85 µM	11.9 µM
CCCCCCCc1ccc(CCc2cccc(O)c2C(=O)O)cc1 [MG 149]	< 9.85 µM	< 9.85 µM	13.6 µM	14.5 µM
CCCCCCCCCCCCCCCC(=O)OC(CC(=O)O)C[N+](C)(C)C (racemic) [Palmitoyl-DL-Carnitine chloride]	< 9.85 µM	< 9.85 µM	12.1 µM	14.3 µM
NC[C@@H]1O[C@H](C23CC4CC(CC(C4)C2)C3)Cc2c1ccc(O)c2O	34.6 µM	54.9 µM	34.9 µM	56 µM
CC(C)=CCCC1(C)C=Cc2c(O)c3c(c(CC=C(C)C)c2O1)OC12C(=CCCC1C(C)(C)O[C@@]2(C/C=C(\C)C(=O)O)C(=O)O)C3=O (stereo partly drawn) [GARCINOLIC ACID]	< 9.85 µM	< 9.85 µM	< 9.85 µM	14.8 µM
